Experimental findings from US9232790B2, “Antimicrobial cleansing compositions” (KIMBERLY-CLARK WORLDWIDE, INC., priority 2011, dated 2016) are described below.

Common to all, as to format: cell-based
Assay [1] concerns E. coli K12 (ATCC 29425). Put plainly: Impact of CAPB on cationic biocides, 60 second contact test against E. coli K12. The conditions noted are these: 0.3% active, 60 seconds contact, 0.3 g/L bovine serum albumin; for LOG10 CFU/ml Reduction, w/ CAPB: with CAPB 3.5% w/w active; for LOG10 CFU/ml Reduction, w/o CAPB: without CAPB. As for the experimental part:
In this Example, the impact of cocamidopropyl betaine (CAPB) on the antimicrobial activity of cationic biocides against E. coli K12 (ATCC 29425) was analyzed.
Specifically, E. coli K12 was contacted for 60 seconds in a 0.3 g/L solution of bovine serum albumin mixed with a solution containing a cationic biocide, with or without CAPB (3.5% w/w active).

The subject of assay [2] is P. aeruginosa (ATCC 15442). Put plainly: Impact of CAPB on cationic biocides, 60 second contact test against P. aeruginosa. The conditions noted are these: 0.3% active, 60 seconds contact, 0.3 g/L bovine serum albumin; for LOG10 CFU/ml Reduction, w/ CAPB: with CAPB 3.5% w/w active; for LOG10 CFU/ml Reduction, w/o CAPB: without CAPB. The method, then:
In this Example, the impact of cocamidopropyl betaine (CAPB) on the antimicrobial activity of cationic biocides against P. aeruginosa (ATCC 15442) was analyzed.
Specifically, P. aeruginosa was contacted for 60 seconds in a 0.3 g/L solution of bovine serum albumin and mixed with a solution containing a cationic biocide, with or without CAPB (3.5% w/w active).

For a further assay, the system named is S. aureus (ATCC 6538). Description: Impact of CAPB on cationic biocides, 60 second contact test against S. aureus. The conditions noted are these: 0.3% active, 60 seconds contact, 0.3 g/L bovine serum albumin; for LOG10 CFU/ml Reduction, w/ CAPB: with CAPB 3.5% w/w active; for LOG10 CFU/ml Reduction, w/o CAPB: without CAPB. The method, then:
In this Example, the impact of cocamidopropyl betaine (CAPB) on the antimicrobial activity of cationic biocides against S. aureus (ATCC 6538) was analyzed.
Specifically, S. aureus was contacted for 60 seconds in a 0.3 g/L solution of bovine serum albumin mixed with a solution containing a cationic biocide, with or without CAPB (3.5% w/w active).

Another assay concerns E. faecalis (ATCC 29212). Put plainly: Impact of CAPB on cationic biocides, 60 second contact test against E. faecalis. The conditions noted are these: 0.3% active, 60 seconds contact, 0.3 g/L bovine serum albumin; for LOG10 CFU/ml Reduction, w/ CAPB: with CAPB 3.5% w/w active; for LOG10 CFU/ml Reduction, w/o CAPB: without CAPB. The method, then: In this Example, the impact of cocamidopropyl betaine (CAPB) on the antimicrobial activity of cationic biocides against E. faecalis (ATCC 29212) was analyzed.
Specifically, E. faecalis was contacted for 60 seconds in a 0.3 g/L solution of bovine serum albumin mixed with a solution containing a cationic biocide, with or without CAPB (3.5% w/w active).

Assay [3] concerns E. coli K12 (ATCC 29425). Put plainly: Impact of other betaine-based surfactants on benzalkonium chloride efficacy against E. coli K12. The conditions noted are these: 60 seconds contact, 0.3 g/L bovine serum albumin; for LOG10 CFU/ml Reduction, 0.3% benzalkonium chloride + 3.5% surfactant: 0.3% benzalkonium chloride combined with 3.5% of the named betaine-based surfactant. The method, then: In this Example, the impact of other betaine-based surfactants on the antimicrobial activity of benzalkonium chloride against E. coli K12 (ATCC 29425) was analyzed.
Specifically, E. coli K12 was contacted for 60 seconds in a 0.3 g/L solution of bovine serum albumin mixed with a solution containing benzalkonium chloride, with or without a betaine-based surfactant (3.5% w/w active).

Bounds are passed on as bounds.

On to `CC(C)(C)CC(C)(C)c1ccc(OCCOCC[N+](C)(C)Cc2ccccc2)cc1` [Benzethonium chloride], for which the “LOG10 CFU/ml Reduction, w/ CAPB” value is reported as under 3.1 LOG10 CFU/ml in the assay on E. coli K12 (ATCC 29425) [1], under 3.3 LOG10 CFU/ml in assay [2], under 2.4 LOG10 CFU/ml in the assay with S. aureus (ATCC 6538) and under 3.3 LOG10 CFU/ml in the assay on E. faecalis (ATCC 29212). The “LOG10 CFU/ml Reduction, w/o CAPB” value was over 5.5 LOG10 CFU/ml with E. coli K12 (ATCC 29425) [1], over 5.7 LOG10 CFU/ml in assay [2], over 4.9 LOG10 CFU/ml in the assay with S. aureus (ATCC 6538) and 4.8 LOG10 CFU/ml in the assay with E. faecalis (ATCC 29212).
In the case of `N=C(NCCCCCCNC(=N)NC(=N)Nc1ccc(Cl)cc1)NC(=N)Nc1ccc(Cl)cc1.O=C(O)[C@H](O)[C@@H](O)[C@H](O)[C@H](O)CO.O=C(O)[C@H](O)[C@@H](O)[C@H](O)[C@H](O)CO` [Chlorhexidine gluconate], the “LOG10 CFU/ml Reduction, w/ CAPB” value in the assay with E. coli K12 (ATCC 29425) [1] is reported as under 3.1 LOG10 CFU/ml; in assay [2], under 3.3 LOG10 CFU/ml; with S. aureus (ATCC 6538), under 2.4 LOG10 CFU/ml; in the assay on E. faecalis (ATCC 29212), under 3.3 LOG10 CFU/ml. The “LOG10 CFU/ml Reduction, w/o CAPB” value in the assay with E. coli K12 (ATCC 29425) [1] is listed as 5.5 LOG10 CFU/ml; in assay [2], over 5.7 LOG10 CFU/ml; with S. aureus (ATCC 6538) it was 3.2 LOG10 CFU/ml; in the assay on E. faecalis (ATCC 29212) it was under 3.3 LOG10 CFU/ml.
Regarding `CCCCCCCCCC[N+](C)(C)CCCCCCCCCC.[Cl-]` [Didecyldimonium chloride], the “LOG10 CFU/ml Reduction, w/ CAPB” value in the assay with E. coli K12 (ATCC 29425) [1] was under 3.1 LOG10 CFU/ml; in assay [2] it was under 3.3 LOG10 CFU/ml; in the assay on S. aureus (ATCC 6538) it was 4 LOG10 CFU/ml; in the assay on S. aureus (ATCC 6538) (listed as didecyldimonium chloride), 4.0 LOG10 CFU/ml; in the assay with E. faecalis (ATCC 29212), under 3.3 LOG10 CFU/ml. In addition, the “LOG10 CFU/ml Reduction, w/o CAPB” value in the assay on E. coli K12 (ATCC 29425) [1] is 4.5 LOG10 CFU/ml; in assay [2], over 5.7 LOG10 CFU/ml; in the assay on S. aureus (ATCC 6538), over 4.9 LOG10 CFU/ml; in the assay with E. faecalis (ATCC 29212) it was over 5.7 LOG10 CFU/ml.
Regarding `CCCCCCCCCCCC[N+](C)(C)CC(=O)[O-]` [Lauryl betaine], the “LOG10 CFU/ml Reduction, 0.3% benzalkonium chloride + 3.5% surfactant” value with E. coli K12 (ATCC 29425) [3] is under 3.1 LOG10 CFU/ml.
With Benzalkonium chloride, the “LOG10 CFU/ml Reduction, w/ CAPB” value is recorded as under 3.1 LOG10 CFU/ml in the assay on E. coli K12 (ATCC 29425) [1], under 3.3 LOG10 CFU/ml in assay [2], under 2.4 LOG10 CFU/ml in the assay with S. aureus (ATCC 6538) and under 3.3 LOG10 CFU/ml in the assay on E. faecalis (ATCC 29212). Moreover, the “LOG10 CFU/ml Reduction, w/o CAPB” value in the assay on E. coli K12 (ATCC 29425) [1] is given as over 5.5 LOG10 CFU/ml; in assay [2], over 5.7 LOG10 CFU/ml; in the assay on S. aureus (ATCC 6538) it was over 4.9 LOG10 CFU/ml; in the assay on E. faecalis (ATCC 29212), over 5.7 LOG10 CFU/ml. In addition, in the assay on E. coli K12 (ATCC 29425) [3] (0.3% benzalkonium chloride alone), the “LOG10 CFU/ml Reduction, 0.3% benzalkonium chloride” value is on record as over 5.5 LOG10 CFU/ml.
Turning to Coco-betaine, the “LOG10 CFU/ml Reduction, 0.3% benzalkonium chloride + 3.5% surfactant” value with E. coli K12 (ATCC 29425) [3] was under 3.1 LOG10 CFU/ml.
On the same count and under the same terms, under Lauramidopropyl betaine stands under 3.0 LOG10 CFU/ml.
The same measure, in the same setting: with Meadowfoamamidopropyl betaine the figure was under 3.0 LOG10 CFU/ml.
